The subject of the assay is houseflies. Kind of assay: Knockdown test on houseflies, oil solution sprayed in a 70 cm cubic chamber. It is filed as in vivo. The following applies: 0.00625% (w/v) oil solution, 0.7 ml sprayed in cubic chamber of 70 cm side length, ten houseflies (5 of each male and female), repeated twice. The method, then: Each of the present invention compounds (1) and (2) (0.00625 parts) produced in the aforementioned Production
Examples was dissolved in 10 parts of dichloromethane and the resulting solution was mixed with 89.99375 parts of an isoparafin solvent (Isper M, registered trademark of Exxon Chemical Company) to prepare a 0.00625% (w/v) oil solution.
Ten houseflies (5 of each male and female) were released in a cubic chamber having a side length of 70 cm and then 0.7 ml of the present invention compound (1) was sprayed through a small window at an inlet of the chamber using a spray gun (spray pressure: 0.9 kg/cm^2). The number of knockdowned houseflies was counted after a given time had passed since completion of spraying, and a knockdown rate (KD rate) was determined (repeated twice). The test was carried out in the same manner, except that the present invention compound (2) was used in place of the present invention compound (1), and then a knockdown rate was determined after a given time (repeated twice).

Experimental findings from patent US8575213B2, “Pyrethrinoid-type esters as pesticides” (Sumitomo Chemical Company, Limited, priority 2010, dated 2013) are described below.

For `C=C/C(C#N)=C/[C@@H]1[C@@H](C(=O)OCc2c(F)c(F)c(COC)c(F)c2F)C1(C)C` [Present invention Compound (1), 4-methoxymethyl-2,3,5,6-tetrafluorobenzyl=(1R)-trans-3-[(1Z)-2-cyano-1,3-butadienyl]-2,2-dimethylcyclopropane carboxylate], the “Knockdown rate (%) after 7 minutes” value was found to be 100%.

For `C/C=C/C(C#N)=C/[C@@H]1[C@@H](C(=O)OCc2c(F)c(F)c(COC)c(F)c2F)C1(C)C` [Present invention compound (2), 4-methoxymethyl-2,3,5,6-tetrafluorobenzyl=(1R)-trans-3-[(1Z,3E)-2-cyano-1,3-pentadienyl]-2,2-dimethylcyclopropane carboxylate], the “Knockdown rate (%) after 7 minutes” value worked out at 100%.
